From patent US20240041878A1, “APELIN RECEPTOR MODULATORS FOR TREATMENT OF A DISORDER OR DISEASE ASSOCIATED WITH BBB PERMEABILITY” (BioAge Labs, Inc., priority 2022, published 2024) come the findings set out here.

The structures appear in SMILES notation.

One series deals with Mouse primary astrocytes. The series can be described thus: Proteome Profiler Mouse Cytokine Array of astrocyte culture supernatant. As to conditions: RAC+BGE-105 [50 nM and 250 nM] versus RAC. The series is classed as cell-based. As for the experimental part:
To stimulate astrocytes into a reactive state found in aging and neurodegenerative diseases per previous publications (Liddelow et al., 2017; Barbar et al., 2020), a combination of the cytokines TNF-α and IL-1α, and complement factor C1q, were added at 30 ng/mL, 3 ng/mL, and 400 ng/mL, respectively, into astrocyte culture media to make ‘reactive astrocyte cocktail’ (RAC) media. […] Bachem, Cat. #4029110), BAY-11-7082 (50 μM; Abcam, Cat. #ab141228) or equal volume of vehicle (0.01% DMSO in PBS) (hereafter referred to as ‘RAC treatment’). […] To assess a panel of cytokines and chemokines, cell culture supernatant was diluted 1:10 and assayed using the Proteome Profiler Mouse Cytokine Array Kit, Panel A (R&D Systems, Cat. #ARY006) per manufacturer's protocol. Dot blots were analyzed in Fiji (Schindelin et al. 2012. Fiji: an open-source platform for biological-image analysis. Nat Methods 9, 676-682) and transcription factor enrichment was performed with Enrichr (Chen, et al. 2013. Enrichr: interactive and collaborative HTML5 gene list enrichment analysis tool. BMC Bioinformatics 14, 128).

The subject of series [1] is healthy volunteers aged 65 or older. The series can be described thus: Phase 1b clinical trial, 10 days of bed rest. The series is classed as in vivo, human. As to conditions: infusions. The source says: The study described herein characterizes the effects of BGE-105 on immune biomarkers in human in a Phase 1b clinical trial directed to treatment of muscular atrophy. […] The double-blind, placebo-controlled trial evaluated the safety and pharmacodynamics of BGE-105. Twenty-one volunteers underwent 10 days of bed rest while receiving infusions of BGE-105 or placebo. Biological samples from treated and placebo groups were collected on Day 6 and Day 11.

The test system of series [2] is human patient, iPSC-derived neurons. The series can be described thus: Neurons from patient derived induced pluripotent stem cells (iPSCs). Particulars: compared to cells not treated with BGE-105. The series is classed as cell-based. The source says:
This study assesses the effect of BGE-105 (or media from other brain cells exposed to BGE-105, such as microglia and astrocytes) in human patient, iPSC-derived neurons improves a variety of functions associated with beneficial neuronal outcomes, including those listed below • i. proliferation and survival • ii. Autophagy • iii. synaptic plasticity • iv. ROS production

In series [3] the test system is primary SOD1^G93A mouse astrocytes. The series can be described thus: Primary SOD1^G93A mouse astrocytes: cytokine release and NF-κB signaling. The series is classed as cell-based. The source says:
The study characterizes effects of BGE-105 on primary astrocytes derived from wildtype and SOD1^G93A mice in vitro. This includes measuring effects on gene expression, secretion of inflammatory cytokines, and glutamate uptake.
The study utilizes primary mouse astrocyte and neuron cultures generated from the SOD1^G93A mouse model of familial ALS as previously described (Lundquist et al. 2019. Exercise induces region-specific remodeling of astrocyte morphology and reactive astrocyte gene expression patterns in male mice. Journal of Neuroscience Research, 97(9), 1081-1094) with some modifications. Briefly, whole spinal cords are resected from PNDO-4 (postnatal day) SOD1^G93A+ pups and wildtype littermates. […]
Astrocytes from wildtype and SOD1^G93A mice are first studied in isolation to compare transcriptomic and cytokine release profiles. […] ACM (astrocyte-conditioned media) are analyzed for release of cytokines and neurotrophic factors using Mouse Proteome Profiler Arrays (R&D Systems), and commercially available ELISAs (for select cytokines from protein arrays). Astrocytic gene expression are analyzed by RT-qPCR, and astrocyte protein expression are analyzed by western blotting as previously described (Lundquist et al, 2022).

In a further series the test system is wildtype motor neurons. The series can be described thus: Neurons exposed to SOD1^G93A astrocyte-conditioned media or co-cultured with SOD1^G93A astrocytes. The series is classed as cell-based, mouse. As for the experimental part:
This study conducts co-culture experiments using SOD1^G93A astrocytes and wildtype motor neurons to determine effects of apelin signaling on rescue of neuronal survival and function. Co-culture experiments are conducted by measuring viability, neuronal homeostasis, and morphological endpoints.
Neurons are isolated from mouse spinal cords as previously described in Example 12 above. Non-astrocytic flowthrough following column-based cell isolation (MACS) are collected and cultured in serum-free, neuron-selective media in 12- or 96-well plates for at least 14 days before experimentation. For specific selection of spinal cord motor neurons, wildtype C57BL/6J mouse PNDO or adult spinal cords are processed using published methods (Beaudet, 2015).
Neurons are cultured for at least 14 days before the start of experimentation. First, ACM from wildtype or SOD astrocytes exposed to 250 nM BGE-105 (or vehicle) are added to neurons seeded in 96 well plates for 6, 12, 24, or 48 hours followed by analysis of neuronal survival using the ApoTox-Glo Triplex kit (Promega) to determine optimal exposure time. […]

Another series has as its system Mouse astrocyte cells. Description: CXCL1 and IL-6 ELISA of astrocyte culture media after RAC treatment. The series is classed as cell-based. Particulars: RAC+BGE-105 250 nM.

With `COc1cccc(OC)c1-n1c(NS(=O)(=O)[C@@H](C)[C@H](C)c2ncc(C)cn2)nnc1-c1cncc(C)c1` [BGE-105, (2S,3R)—N-(4-(2,6-dimethoxyphenyl)-5-(5-methyl-3-pyridinyl)-4H-1,2,4-triazol-3-yl)-3-(5-methyl-2-pyrimidinyl)-2-butanesulfonamide], the “cytokine and chemokine release (array panel)” value in the series with Mouse primary astrocytes is listed as “significantly reduced”. In addition, the tolerability result in series [1] (10 days of bed rest) is “well tolerated”. Moreover, the “muscle atrophy relative to placebo” value in series [1] (10 days of strict bed rest) is reported as “statistically significant prevention”. Further, the “survival, differentiation and cellular functioning of stem-cell-derived neurons” value in series [2] was “improves overall survival, differentiation, and cellular functioning”. Besides, the “release of proinflammatory cytokines into astrocyte conditioned media (ACM)” value in series [3] (250 nM BGE-105, 24 hours) is recorded as “release less proinflammatory cytokines”. Also, the NF-κB signaling activity result in series [3] (untreated versus BGE-105 treated SOD1^G93A astrocytes) was “changes to NF-κB signaling activity”. Besides, the “neuron cell death caused by SOD1^G93A ACM” value in the series with wildtype motor neurons (pretreatment of SOD1^G93A astrocytes with 250 nM BGE-105) was “attenuated”. In the series with wildtype motor neurons (wildtype neurons cultured with SOD1^G93A astrocytes, 250 nM BGE-105), the “synaptic protein expression and neuronal structural integrity” value is “preserves synaptic protein expression and neuronal structural integrity”. In the series on Mouse astrocyte cells, the “CXCL1 concentration/release (FIG. 12)” value lay in the range of 20000 to 40000 pg/mL and the “IL-6 concentration/release (FIG. 12)” value is reported as “about 10000 pg/ml”.
